Reference: article PMC3483115 (The Journal of General Physiology, 2012)
Ends that are not written are not given here. MBP = maltose-binding protein (N-terminal fusion)

Experiments:
TRPV1 K155A [1] = format: cell-based, rat; conditions: repeated 1 µM capsaicin, whole cell, extracellular Ca^2+
TRPV1 K155A [2] = conditions: ref Lishko et al., 2007; cited from earlier work
Ca^2+–CaM [3] = target: T1, Ca^2+–CaM (Homo sapiens, UniProt P0DP23); conditions: ref Lishko et al., 2007; cited from earlier work
Ca^2+–CaM [4] = target: T1, Ca^2+–CaM; assay: CaM-agarose pulldown of MBP-fused TRPV1-CT35 peptides; format: binding; conditions: CaM-agarose pulldown (Fig. S2), pH 7.5, 1 mM CaCl2 or EGTA, 4°C, 1 h
Ca^2+–CaM [5] = target: T1, Ca^2+–CaM; assay: SEC-based comparison of Ca^2+–CaM affinity, TRPV1-ARD vs. TRPV1-CT; format: binding; conditions: suggested by SEC; affinity could not be measured
CaM = assay: SEC of TRPV1-CT peptides mixed with CaM; format: binding; conditions: Superdex 75, in the presence of Ca^2+, data shown for TRPV1-CT44
TRPV1 = conditions: ref Liu et al., 2005, Lishko et al., 2007, Lukacs et al.; cited from earlier work

COc1cc(CNC(=O)CCCC/C=C/C(C)C)ccc1O [capsaicin]
tachyphylaxis and activation kinetics, K155A TRPV1 (TRPV1 K155A [1]): little tachyphylaxis and slower activation kinetics | capsaicin sensitivity of K155A TRPV1 (TRPV1 K155A [2]): normal capsaicin sensitivity

K155A: TRPV1 with mutation K155A in the TRPV1-ARD
Ca^2+–CaM binding to TRPV1-ARD with mutation (Ca^2+–CaM [3]): abolish Ca^2+–CaM binding to TRPV1-ARD

L796P ({MBP}-EGVKRTLSFSLRSGRVSGRNWKNFALVPLPRDAST)
Ca^2+–CaM binding of L796P MBP-TRPV1-CT35 (pulldown) (Ca^2+–CaM [4]): did not significantly disrupt binding of TRPV1-CT35 to Ca^2+–CaM

TRPV1-ARD: N-terminal ankyrin repeat domain of TRPV1 (rat or chicken)
affinity of TRPV1-ARD for Ca^2+–CaM relative to TRPV1-CT (Ca^2+–CaM [5]): the affinity is likely significantly lower than that of the TRPV1-CT

TRPV1-CT35: 35-residue CaM-binding peptide from the TRPV1-CT (residues 767–801) (EGVKRTLSFSLRSGRVSGRNWKNFALVPLLRDAST; left off: MBP, N-terminal, cleaved)
shift in elution volume with CaM (CaM): undergo a large shift in elution volume when mixed with CaM in the presence of Ca^2+, confirming that a complex is formed

phosphatidylinositol-4,5-bisphosphate [PIP2]
effect of PIP2 on TRPV1 (TRPV1): can also potentiate TRPV1
